Measured values published in US12533348B2, “Ferroportin-inhibitors for the use in the treatment of transfusion-dependent beta-thalassemia (TDT)” (Vifor (International) AG, priority 2019, dated 2026).
Where “and” joins values, the source holds several entries; their conditions need not be identical. Equal entries are not always repeated.

Assays:
[1] = system: Hbb^th3/+ mouse model of β-thalassemia intermedia; assay: Combination study: serum EPO (DuoSet ELISA); format: in vivo; details: serum; th3/+ mice; day 23; DFX 30 mg/kg QD, Fpn127 120 mg/kg QD p.o.; all animals; mean
Protocol: (§1) On day 23 (study end) 1 hour after dosing blood was collected by retro-orbital bleeding from pre-terminally anesthetized mice into BD Microtainer Tubes (Cat. 365967 and 365975) for determination of serum iron, transferrin, erythropoietin and compound exposure. Anesthetized animals were subsequently euthanized by cervical dislocation.
(§2) [formula] Serum EPO was measured using a mouse-specific DuoSet ELISA according to the manufacturer's instructions (R&D Systems, Cat. DY959). Plasma concentrations of Fpn127 and DFX were measured at GVK Biosciences, Hyderabad, IN. Flow Cytometric Analysis of Intracellular ROS, Mitochondria, and PS Exposure

[2] = system: Hbb^th3/+ mouse model of β-thalassemia intermedia; assay: Combination study: flow cytometric analysis of intracellular ROS, mitochondria and PS exposure in mature RBC; format: in vivo; details: th3/+ mice, all animals; mature RBCs in whole blood at end of study (pre-terminally d22)
Protocol: In peripheral blood taken on day 22 by tail vein incision, ROS were detected with the indicator chloromethyl-2′,7′-dichlorodihydrofluorescein diacetate (CM-H2DCFDA, Invitrogen), the presence of mitochondria was detected with MitoTracker Deep Red FM (Invitrogen), and PS exposure was detected using the Annexin V Apoptosis Detection Kit (Invitrogen) in mature RBC labelled with Ter119 and CD71 antibodies.
For all analysis, cells were analyzed on a CANTOII cytometer (BD Biosciences) and data were analyzed using FlowJo® software (FlowJo, LLC, version 10.2).

[3] = system: Hbb^th3/+ mouse model of β-thalassemia intermedia; details: in vivo
Protocol: (§3) The aim of this study was to test whether the concurrent use of the iron chelator DFX administered once daily (QD) alone at 30 mg/kg or in combination with Fpn127 administered QD at 120 mg/kg for 3 weeks is causing any therapeutic interactions in a mouse model of β-thalassemia intermedia (Hbb^th3/+; B6; 129P—b1tm1Unc-b2tm1Unc/J, Jackson Laboratories, Stock Number: 002683).
(§4) Animals were euthanized 1 h after the last dose of DFX on study day 23 (dosing day 17).
(§5) On the final study day (day 23), spleen, liver, and kidneys were collected and snap frozen in liquid nitrogen for further analysis, as outlined below. Wet weight of spleen, liver, and kidneys were recorded.
(§6) Content of total Fe was determined in pieces of spleens, livers, and kidneys by ICP-OES in the Analytical Development group of Vifor (International) Ltd., St. Gallen.
(§7) Individual wet weights of organs were recorded. Individual values of total Fe were measured in livers, spleens, and kidneys. Individual values of total Fe content and concentration were calculated. Mean±SD of total Fe concentration and content in livers, spleens, and kidneys was calculated for each group.

[4] = system: Hbb^th3/+ mouse model of β-thalassemia intermedia; assay: Combination study: organ weights and tissue iron (ICP-OES) in liver, spleen, kidney; details: for relative spleen weight: percent of body weight; for relative spleen weight / kidney Fe conc. / liver Fe conc. / spleen Fe conc.: th3/+ mice, DFX 30 mg/kg QD, Fpn127 120 mg/kg QD p.o., end of study (day 23), mean
Protocol: as §3, §4, §5, §6, §7

[5] = Combination study DFX/Fpn127: clinical observations, mortality and body weight; format: in vivo, mouse; details: for BW: th3/+ mice, mean
Protocol: One day after switching to lid a blood sample was taken by tail vein incision to determine the baseline Hb levels. Hb was measured using a HaemoCue® device. Hb was also measured on days 8, 15, and 22 in the morning before dosing. The animals were dosed p.o. D with 30 mg/kg DFX in 30% Kolliphor, 120 mg/kg Fpn127 in 0.5% C, or both for a total of 17 doses during the 23 days of study. 30% Kolliphor and 0.5% C were dosed as vehicles. The dose of DFX was administered at the beginning of the dark cycle (active phase) at 9:00 followed by 3 h of access to lid. Then, mice were dosed with Fpn127 (or 0.5% C) and were given access to sd for a 6 h period before switched back to lid. On the dosing was paused and mi had access to lid ad libitum.
Animals and their cages were checked daily by the experimenter during the study on working days. During the experimental phase, animals were weighted minimum once per week and scored according to their clinical symptoms: BW, general behavior and activity, appearance of hair coat, eyes, and nose. Clinical observations were recorded when present on separate score sheets.
BW was recorded once before the start of the experimental phase on day −1. During the experimental phase, individual BW were recorded 1 to 2 times per week to calculate the dosing volume and to monitor weight loss.

[6] = system: Hbb^th3/+ mouse model of β-thalassemia intermedia; assay: Combination study: serum iron (MULTIGENT Iron assay), transferrin ELISA and calculated TSAT; format: in vivo; details: th3/+ mice, all animals, mean
Protocol: […] Anesthetized animals were subsequently euthanized by cervical dislocation.
Serum levels of iron were determined in triplicates using MULTIGENT Iron assay (Abbott Diagnostics, Cat. 6K95). Serum Transferrin (TO was measured in duplicates using a mouse-specific ELISA according to the manufacturer's instructions (Abcam, Cat. ab157724). Transferrin saturation (TSAT) was calculated using the formula: […]

[7] = Combination study: plasma concentrations of Fpn127 and DFX (LC-MS/MS); format: in vivo, mouse
Protocol: as §1, §2
Plasma was collected 1 hour after dosing of DFX on day 23 for determination of compound concentration by LC-MS/MS. Plasma exposure of DFX was similar in animals dosed with DFX alone or in combination with Fpn127 (FIG. 11, Table 12). […] As expected, plasma levels of Fpn127 were low as plasma was sampled approximately 20 h after the last dose of Fpn127.

[8] = system: Hbb^th3/+ mouse model of β-thalassemia intermedia; assay: Combination study: complete blood counts (ProCyte Dx); format: in vivo
Protocol: Complete blood counts were performed on fresh EDTA-blood on an automated blood cell analyzer (ProCyte Dx®, IDEXX Laboratories) in-house.

[9] = th3/+ mice, DFX 30 mg/kg QD, Fpn127 120 mg/kg QD p.o., whole blood day 23, all animals, mean

## O=C(O)c1ccc(-n2nc(-c3ccccc3O)nc2-c2ccccc2O)cc1 [DFX, deferasirox, reference compound]
[1]
  EPO: 5277 ± 1710 pg/mL and 5277 pg/mL
[2]
  % Annex in V-positive RBCs (mean): 0.47%
  % Mito Tracker-positive RBCs (mean): 0.56%
  % ROS-positive RBCs (mean): 41.56%
[3]
  effect on kidney weight vs vehicle-treated Hbbth3/+ mice: no effect on kidney weight
  effect on liver weight vs vehicle-treated Hbbth3/+ mice: no effect on liver weight
[4]; end of study d23 (FIG. 4)
  effect on relative spleen weight in th3/+ animals: no effect
[4]; all animals
  relative spleen weight: 1.98±0.26% and 1.98%
  kidney Fe conc.: 125.1 ± 22.2 µg/g and 125.1 µg/g
  liver Fe conc.: 196.3 ± 62.5 µg/g and 196.3 µg/g
  spleen Fe conc.: 1553.0 ± 144.7 µg/g and 1553.0 µg/g
[4]; females
  relative spleen weight: 2.17%
  kidney Fe conc.: 126.6 µg/g
  liver Fe conc.: 241.2 µg/g
  spleen Fe conc.: 1511.0 µg/g
[4]; males
  relative spleen weight: 1.79%
  kidney Fe conc.: 123.6 µg/g
  liver Fe conc.: 151.5 µg/g
  spleen Fe conc.: 1602.0 µg/g
[5]; Hbb^th3/+ mice, DFX 30 mg/kg QD, Fpn127 120 mg/kg QD p.o., 17 doses in 23 days
  tolerability / clinical symptoms: generally well tolerated
[5]; males
  BW by the end of the study vs vehicle treated Hbb^th3/+ mice: slightly but significantly lower BW
[5]; DFX 30 mg/kg QD, Fpn127 120 mg/kg QD p.o., day 1, all animals
  BW: 21.5 g
[5]; DFX 30 mg/kg QD, Fpn127 120 mg/kg QD p.o., day 1, females
  BW: 19.2 ± 1.3 g and 19.2 g
[5]; DFX 30 mg/kg QD, Fpn127 120 mg/kg QD p.o., day 1, males
  BW: 23.7 ± 1.3 g and 23.7 g
[5]; DFX 30 mg/kg QD, Fpn127 120 mg/kg QD p.o., day 3, all animals
  BW: 23.2 g
[5]; DFX 30 mg/kg QD, Fpn127 120 mg/kg QD p.o., day 3, females
  BW: 20.9 g
[5]; DFX 30 mg/kg QD, Fpn127 120 mg/kg QD p.o., day 3, males
  BW: 25.6 g
[5]; DFX 30 mg/kg QD, Fpn127 120 mg/kg QD p.o., day 7, all animals
  BW: 23.2 g
[5]; DFX 30 mg/kg QD, Fpn127 120 mg/kg QD p.o., day 7, females
  BW: 21.0 g
[5]; DFX 30 mg/kg QD, Fpn127 120 mg/kg QD p.o., day 7, males
  BW: 25.4 g
[5]; DFX 30 mg/kg QD, Fpn127 120 mg/kg QD p.o., day 10, all animals
  BW: 22.9 g
[5]; DFX 30 mg/kg QD, Fpn127 120 mg/kg QD p.o., day 10, females
  BW: 20.6 g
[5]; DFX 30 mg/kg QD, Fpn127 120 mg/kg QD p.o., day 10, males
  BW: 25.2 g
[5]; DFX 30 mg/kg QD, Fpn127 120 mg/kg QD p.o., day 14, all animals
  BW: 23.0 g
[5]; DFX 30 mg/kg QD, Fpn127 120 mg/kg QD p.o., day 14, females
  BW: 20.7 g
[5]; DFX 30 mg/kg QD, Fpn127 120 mg/kg QD p.o., day 14, males
  BW: 25.2 g
[5]; DFX 30 mg/kg QD, Fpn127 120 mg/kg QD p.o., day 17, all animals
  BW: 22.8 g
[5]; DFX 30 mg/kg QD, Fpn127 120 mg/kg QD p.o., day 17, females
  BW: 20.4 g
[5]; DFX 30 mg/kg QD, Fpn127 120 mg/kg QD p.o., day 17, males
  BW: 25.2 g
[5]; DFX 30 mg/kg QD, Fpn127 120 mg/kg QD p.o., day 22, all animals
  BW: 23.3 g
[5]; DFX 30 mg/kg QD, Fpn127 120 mg/kg QD p.o., day 22, females
  BW: 20.8 g
[5]; DFX 30 mg/kg QD, Fpn127 120 mg/kg QD p.o., day 22, males
  BW: 25.9 g
[6]; calculated from Tf and serum iron, day 23, 1 h after last DFX dose, approx. 20 h after last Fpn127 dose
  TSAT: 27.5%
[6]; day 23, 1 h after last DFX dose (30 mg/kg), approx. 20 h after last Fpn127 dose (120 mg/kg)
  serum iron: 30.8 ± 5.9 µM and 30.8 µM
[7]; 1 hour after dosing of DFX on day 23 (FIG. 11)
  plasma exposure of DFX, alone vs in combination with Fpn127: similar
[7]; both sexes, Hbb^th3/+ (B6; 129P—b1tm1Unc-b2tm1Unc/J), mouse, oral, 30 mg/kg, th3/+ mice, all animals, plasma collected 1 hour after dosing of DFX on day 23, LC-MS/MS, read-out: Plasma exposure of DFX at the end of the study (mean)
  concentration at 1 h: 15400 ng/mL
[8]; Hbb^th3/+ mice, day 23, potential inflammatory response
  neutrophil counts: significantly increased
[8]; [9]
  HCT: 27.4%
  Leukocytes: 8.9 10E3/μL
  Lymphocytes: 7.4 10E3/μL
  MCH: 10.4 pg
  MCHC: 25.4 g/dL
  MCV: 41.1 fL
  Neutrophils: 1.2 10E3/μL
  RBC: 7.7 10E6/μL
  RDW: 47.0%
  RET: 1760 10E3/μL
  Ret-He: 12.8 pg
